Data taken from US10213415B2, “Compounds as opioid receptor modulators” (JANSSEN PHARMACEUTICA NV, priority 2004, dated 2019).
pKi: −log10 of the molar value.

Tests used:
delta opioid receptor = target: T1, delta opioid receptor (Rattus norvegicus, UniProt P33533); experiment: Rat Brain Delta Opioid Receptor Binding Assay ([3H]DPDPE); conditions: rat forebrain membranes, margin of error 10-20%, read-out: r Ki δ
T1 construct: from tissue; host or cells: forebrain of male Wistar rats
Procedure: (§1) Male, Wistar rats (150-250 g, VAF, Charles River, Kingston, N.Y.) are killed by cervical dislocation, and their brains removed and placed immediately in ice cold Tris HCl buffer (50 mM, pH 7.4). The forebrains are separated from the remainder of the brain by a coronal transection, beginning dorsally at the colliculi and passing ventrally through the midbrain-pontine junction. After dissection, the forebrains are homogenized in Tris buffer in a Teflon® glass homogenizer. The homogenate is diluted to a concentration of 1 g of forebrain tissue per 80 mL Tris and centrifuged at 39,000×g for 10 min. The pellet is resuspended in the same volume of Tris buffer containing 5 mM MgCl2 with several brief pulses from a Polytron homogenizer. This particulate preparation is used for the delta opioid binding assays. Following incubation with the delta selective peptide ligand ˜4 nM [^3H]DPDPE at 25° C. for 2.5 h in a 96-well plate with total volume of 1 mL, the plate contents are filtered through Wallac filtermat B sheets on a Tomtec 96-well harvester. The filters are rinsed three times with 2 mL of 10 mM HEPES (pH 7.4), and dried in a microwave oven 2 min twice. To each sample area 2×50 μL of Betaplate Scint scintillation fluid (LKB) is added and analyzed on a LKB (Wallac) 1205 BetaPlate liquid scintillation counter.
(§2) The data are used to calculate either the % inhibition compared to control binding (when only a single concentration of test compound is evaluated) or a Ki value (when a range of concentrations is tested). % inhibition is calculated as: [(total dpm−test compound dpm)/(total dpm−nonspecific dpm)]*100. Kd and Ki values were calculated using GraphPad PRISM data analysis program.

mu opioid receptor = target: T2, mu opioid receptor (Rattus norvegicus, UniProt P33535); experiment: Rat Brain Mu Opioid Receptor Binding Assay (and Version 2a, [3H]DAMGO); conditions: rat forebrain membranes, margin of error 10-20%, read-out: r Ki μ
T2 construct: from tissue; host or cells: forebrain of male Wistar rats
Procedure: as §1, with “mu-opioid” for “delta opioid”, “Following incubation with the delta selective peptide ligand ˜4 nM [^3H]DPDPE at 25° C. for 2.5 h in a 96-well plate with total volume of 1 mL, the plate contents are filtered through Wallac filtermat B sheets on a Tomtec 96-well harvester.” left out, “(pH7.4),” for “(pH 7.4),”
as §2, with “dpm-test” for “dpm−test”, “dpm-nonspecific” for “dpm−nonspecific”
Male, Wistar rats (150-250 g, VAF, Charles River, Kingston, N.Y.) were killed by cervical dislocation, and their brains removed and placed immediately in ice-cold Tris HCl buffer (50 mM, pH 7.4). The forebrains were separated from the remainder of the brain by a coronal transection, beginning dorsally at the colliculi and passing ventrally through the midbrain-pontine junction. After dissection, the forebrains were homogenized in Tris buffer in a Teflon®-glass homogenizer. The homogenate was diluted to a concentration of 1 g of forebrain tissue per 80 mL Tris and centrifuged at 39,000×g for 10 min. The pellet was resuspended in the same volume of Tris buffer containing 5 mM MgCl2 with several brief pulses from a Polytron homogenizer. This particulate preparation was used for the mu opioid binding assay. Following incubation with 0.8 nM of the mu selective ligand [^3H]DAMGO at 25° C. for 2.5 h in a 96-well plate with total 1 mL, the plate contents were filtered through Wallac filtermat B sheets on a Tomtec 96-well harvester. The filters were rinsed three times with 2 mL of 10 mM HEPES (pH 7.4), and dried in a microwave oven. To each sample area, Betaplate Scint scintillation fluid (LKB) was added and the resulting radioactivity quantified on a LKB (Wallac) 1205 BetaPlate liquid scintillation counter. Kd and Ki values were calculated using the GraphPad PRISM data analysis program.

human mu opioid receptor = target: T3, human mu opioid receptor (Homo sapiens, UniProt P35372); experiment: Human Mu Opioid Receptor Binding Assay (CHO membranes, 3H-Damgo); conditions: read-out: hKi μ
T3 construct: purchased Perkin Elmer RBHOMM400UA; host or cells: Chinese Hamster Ovary cells (recombinant expression)
Method in brief: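 Membranes from CHO cells expressing human mu opioid receptor, 300 μg/mL, in 50 mM Tris pH 7.5, 5 mM MgCl2. Incubated with compound and ³H-Damgo (3.6 nM before mixing) for 2 h at room temperature, filtered, counted by scintillation. Nonspecific binding with 1 μM unlabelled Damgo.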

[1] = target: T4, mu opioid receptor (CHO-hMOR cell membranes) (Homo sapiens, UniProt P35372); experiment: Mu Opioid Receptor Functional Assay: [35S]GTPγS Binding in CHO-hMOR Cell Membranes, Versions 1 and 2; assay type: biochemical; conditions: for MOR GTP binding assay_v1 (% I): version 1, % inhibition of agonist-stimulated GTPγS binding; for MOR GTP assay_v1 % of Basal: version 1, basal binding = 100%
T4 construct: purchased Receptor Biology, Inc. (Baltimore, Md.); host or cells: CHO cells (recombinant expression)
Procedure: CHO-hMOR cell membranes were purchased from Receptor Biology, Inc. (Baltimore, Md.). About 10 mg/ml of membrane protein was suspended in 10 mM TRIS-HCl pH 7.2, 2 mM EDTA, 10% sucrose, and the suspension kept on ice. One ml of membranes was added to 15 ml cold binding assay buffer containing 50 mM HEPES, pH 7.6, 5 mM MgCl2, 100 mM NaCl, 1 mM DTT and 1 mM EDTA. The membrane suspension was homogenized with a Polytron and centrifuged at 3,000 rpm for 10 min. The supernatant was then centrifuged at 18,000 rpm for 20 min. The pellet was resuspended in 10 ml assay buffer with a Polytron.
The membranes were preincubated with wheat germ agglutinin coated SPA beads (Amersham) at 25° C. for 45 min in the assay buffer. The SPA bead (5 mg/ml) coupled membranes (10 μg/ml) were then incubated with 0.5 nM [^35S]GTPγS in the assay buffer. […] A range of concentrations of receptor agonists was used to stimulate [^35S]GTPγS binding. Both basal and non-specific binding was tested in the absence of agonist; non-specific binding determination included 10 μM unlabeled GTPγS.
Compounds were tested for function as antagonists by evaluating their potential to inhibit agonist-stimulated GTPγS binding. Radioactivity was quantified on a Packard TopCount. The following parameters were calculated:
[formula] % Inhibition=(% stimulation by 1 μM SNC80−% stimulation by 1 μM SNC80 in presence of test compound)×100/(% Stimulation by 1 μM SNC80−100)
EC50 values were calculated using GraphPad Prism.

T3 sequence (P35372 whole entry): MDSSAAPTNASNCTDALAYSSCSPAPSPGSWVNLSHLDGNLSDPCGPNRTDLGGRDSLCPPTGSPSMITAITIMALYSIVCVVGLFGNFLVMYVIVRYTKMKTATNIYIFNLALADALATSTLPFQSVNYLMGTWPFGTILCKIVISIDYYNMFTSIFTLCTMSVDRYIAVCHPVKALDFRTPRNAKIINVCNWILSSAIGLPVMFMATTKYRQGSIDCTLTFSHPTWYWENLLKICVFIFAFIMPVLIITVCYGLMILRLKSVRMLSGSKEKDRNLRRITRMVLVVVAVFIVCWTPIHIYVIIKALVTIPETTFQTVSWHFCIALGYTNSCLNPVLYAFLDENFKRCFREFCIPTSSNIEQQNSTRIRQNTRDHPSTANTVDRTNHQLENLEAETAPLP
T4 sequence (P35372 whole entry): as above
T1 sequence (P33533 whole entry): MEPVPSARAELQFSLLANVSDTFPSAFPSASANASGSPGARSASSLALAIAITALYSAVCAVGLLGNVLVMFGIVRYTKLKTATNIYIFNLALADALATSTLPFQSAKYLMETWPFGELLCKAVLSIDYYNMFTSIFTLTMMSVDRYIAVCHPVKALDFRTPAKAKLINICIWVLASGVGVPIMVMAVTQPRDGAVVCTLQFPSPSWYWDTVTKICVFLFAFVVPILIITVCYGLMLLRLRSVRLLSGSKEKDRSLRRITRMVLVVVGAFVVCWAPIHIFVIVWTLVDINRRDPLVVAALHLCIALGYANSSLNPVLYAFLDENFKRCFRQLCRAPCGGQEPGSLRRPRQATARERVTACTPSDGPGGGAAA
T2 sequence (P33535 whole entry): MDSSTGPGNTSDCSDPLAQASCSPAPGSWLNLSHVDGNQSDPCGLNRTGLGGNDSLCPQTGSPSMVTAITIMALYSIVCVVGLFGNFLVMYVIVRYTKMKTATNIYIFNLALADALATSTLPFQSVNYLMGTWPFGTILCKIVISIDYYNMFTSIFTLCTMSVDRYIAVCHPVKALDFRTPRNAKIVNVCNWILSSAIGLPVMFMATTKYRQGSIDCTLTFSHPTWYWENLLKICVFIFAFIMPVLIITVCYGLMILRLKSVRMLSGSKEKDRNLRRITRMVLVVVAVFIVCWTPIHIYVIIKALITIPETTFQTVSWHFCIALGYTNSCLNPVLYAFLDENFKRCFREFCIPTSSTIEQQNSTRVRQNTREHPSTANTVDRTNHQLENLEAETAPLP

Compound: COC(=O)c1cc(CN(C(=O)[C@H](N)Cc2ccc(C(N)=O)cc2)[C@H](C)c2nc(-c3ccccc3)c[nH]2)ccc1OC [Cpd 284]
- pKi (delta opioid receptor): 5.82
- pKi (mu opioid receptor): 5.99

Compound: Cc1cc(O)cc(C)c1C[C@H](N)C(=O)N[C@H](C)c1nc(-c2ccccc2)c[nH]1 [Cpd 208]
- pKi (delta opioid receptor): 7.48
- pKi (human mu opioid receptor): 8.92
- pKi (mu opioid receptor): 8.89
- MOR GTP binding assay_v1 (% I) [1]: 1.00%
- MOR GTP assay_v1 % of Basal [1]: 475.00%

Compound: CC(C)C[C@@H](c1nc(-c2ccccc2)c[nH]1)N(C)C(=O)[C@@H](N)Cc1cccc(C(N)=O)c1 [Cpd 168]
- pKi (delta opioid receptor): 5.05
- pKi (mu opioid receptor): 5.27

Compound: COc1ccc(CN(C(=O)[C@@H](N)Cc2c(C)cccc2C)[C@@H](C)c2nc(-c3ccccc3)c[nH]2)cc1C(=O)O [Cpd 292]
- pKi (delta opioid receptor): 7.00
- pKi (mu opioid receptor): 9.19

Compound: COC(=O)c1cc(CN(C(=O)[C@@H](N)Cc2c(C)cc(C(N)=O)cc2C)[C@H](C)c2nc(-c3ccccc3)c[nH]2)ccc1OC [Cpd 280]
- pKi (delta opioid receptor): 7.49
- pKi (mu opioid receptor): 8.52

Compound: COc1ccc(CN(C(=O)[C@@H](N)Cc2ccc(O)cc2)[C@@H](C)c2nc(-c3ccccc3)c[nH]2)cc1C(N)=O [Cpd 297]
- pKi (delta opioid receptor): 7.36
- pKi (mu opioid receptor): 9.96

Compound: CC(C)[C@H](NC(=O)[C@@H](N)Cc1ccc(O)cc1)c1nc(-c2ccccc2)c[nH]1 [Cpd 188]
- pKi (delta opioid receptor): 6.27
- pKi (mu opioid receptor): 6.51

Compound: Cc1cc(O)cc(C)c1C[C@H](N)C(=O)N(Cc1ccccc1)[C@H](C)c1nc(-c2ccccc2)c[nH]1 [Cpd 220]
- pKi (delta opioid receptor): 5.16
- pKi (human mu opioid receptor): 6.42
- pKi (mu opioid receptor): 6.80

Compound: COc1ccc(CN(C(=O)[C@@H](N)Cc2ccc(O)cc2)[C@@H](C)c2nc(-c3ccc(Cl)cc3)c(C)[nH]2)cc1C(=O)O [Cpd 293]
- pKi (delta opioid receptor): 5.50
- pKi (mu opioid receptor): 6.19

Compound: COc1ccc(CN(C(=O)[C@@H](N)Cc2c(C)cc(C(N)=O)cc2C)[C@H](C)c2nc(-c3ccc(Cl)cc3)c(C)[nH]2)cc1C(=O)O [Cpd 278]
- pKi (delta opioid receptor): 7.31
- pKi (mu opioid receptor): 7.92

Compound: C[C@@H](c1nc(-c2ccccc2)c[nH]1)N(C)C(=O)[C@@H](N)Cc1ccc(S(N)(=O)=O)cc1 [Cpd 189]
- pKi (delta opioid receptor): 6.44
- pKi (mu opioid receptor): 6.56

Compound: CN[C@@H](Cc1ccc(O)cc1)C(=O)N(Cc1ccc(OC)c(C(=O)O)c1)[C@@H](C)c1nc(-c2ccccc2)c[nH]1 [Cpd 262]
- pKi (delta opioid receptor): 7.76
- pKi (human mu opioid receptor): 8.49
- pKi (mu opioid receptor): 8.96

Compound: CC(C)[C@H](NC(=O)[C@@H](N)Cc1cccc(C(N)=O)c1)c1nc(-c2ccccc2)c[nH]1 [Cpd 185]
- pKi (delta opioid receptor): 6.74
- pKi (mu opioid receptor): 5.17

Compound: Cc1cc(O)cc(C)c1C[C@H](N)C(=O)N[C@@H](COCc1ccccc1)c1nc(-c2ccccc2)c[nH]1 [Cpd 175]
- pKi (delta opioid receptor): 6.78
- pKi (mu opioid receptor): 8.44
- MOR GTP binding assay_v1 (% I) [1]: 53.00%
- MOR GTP assay_v1 % of Basal [1]: 471.00%

Compound: Cc1cc(O)cc(C)c1C[C@H](N)C(=O)N[C@@H](Cc1ccccc1)c1nc(-c2ccccc2)c[nH]1 [Cpd 177]
- pKi (delta opioid receptor): 6.59
- pKi (mu opioid receptor): 7.87
- MOR GTP binding assay_v1 (% I) [1]: 23.00%
- MOR GTP assay_v1 % of Basal [1]: 625.00%

Compound: CC(C)N(C(=O)[C@@H](N)Cc1ccc(O)cc1)[C@H](C)c1nc(-c2ccccc2)c[nH]1 [Cpd 222]
- pKi (delta opioid receptor): 6.40
- pKi (human mu opioid receptor): 6.73
- pKi (mu opioid receptor): 7.04

Compound: COC(=O)c1cc(CN(C(=O)[C@@H](N)Cc2ccc(O)cc2)[C@@H](C)c2nc(-c3ccccc3)c[nH]2)ccc1OC [Cpd 279]
- pKi (delta opioid receptor): 8.28
- pKi (mu opioid receptor): 9.86

Compound: CCNC(=O)c1cc(C)c(C[C@H](N)C(=O)N(C)[C@@H](C)c2nc(-c3ccccc3)c[nH]2)c(C)c1 [Cpd 181]
- pKi (delta opioid receptor): 6.47
- pKi (mu opioid receptor): 8.89
- MOR GTP binding assay_v1 (% I) [1]: 1.00%

Compound: Cc1cc(O)cc(C)c1C[C@H](N)C(=O)N[C@H](c1nc(-c2ccccc2)c[nH]1)C(C)C [Cpd 187]
- pKi (delta opioid receptor): 5.28
- pKi (mu opioid receptor): 6.92

Compound: COC(=O)c1cc(CN(C(=O)[C@@H](N)Cc2ccc(C(N)=O)cc2)[C@H](C)c2nc(-c3ccccc3)c[nH]2)ccc1OC [Cpd 281]
- pKi (delta opioid receptor): 6.14
- pKi (mu opioid receptor): 6.40

Compound: C[C@@H](c1nc(-c2ccccc2)c[nH]1)N(C)C(=O)[C@@H](N)Cc1ccc(O)cc1 [Cpd 211]
- pKi (delta opioid receptor): 6.74
- pKi (mu opioid receptor): 8.23
- MOR GTP binding assay_v1 (% I) [1]: 10.00%
- MOR GTP assay_v1 % of Basal [1]: 371.00%

Compound: Cc1cc(C(=O)N2CCOCC2)cc(C)c1C[C@H](N)C(=O)N(C)[C@H](C)c1nc(-c2ccccc2)c[nH]1 [Cpd 180]
- pKi (delta opioid receptor): 5.28
- pKi (mu opioid receptor): 5.92

Compound: CCNC(=O)c1cc(C)c(C[C@H](N)C(=O)N(C)[C@H](C)c2nc(-c3ccccc3)c[nH]2)c(C)c1 [Cpd 182]
- pKi (delta opioid receptor): 5.73
- pKi (mu opioid receptor): 8.15
- MOR GTP binding assay_v1 (% I) [1]: 6.00%

Compound: C[C@H](NC(=O)[C@@H](N)Cc1ccc(O)cc1)c1nc(-c2ccccc2)c[nH]1 [Cpd 213]
- pKi (delta opioid receptor): 5.25
- pKi (human mu opioid receptor): < 6.00
- pKi (mu opioid receptor): 5.90

Compound: CC(C)[C@H](NC(=O)[C@@H](N)Cc1cccc(C#N)c1)c1nc(-c2ccccc2)c[nH]1 [Cpd 186]
- pKi (delta opioid receptor): 6.29
- pKi (mu opioid receptor): 5.27

Compound: Cc1cc(O)cc(C)c1C[C@H](N)C(=O)N[C@@H](Cc1cccc(C#N)c1)c1nc(-c2ccccc2)c[nH]1 [Cpd 173]
- pKi (delta opioid receptor): 5.30
- pKi (mu opioid receptor): 7.34
- MOR GTP binding assay_v1 (% I) [1]: 85.00%
- MOR GTP assay_v1 % of Basal [1]: 147.00%

Compound: C[C@@H](NC(=O)[C@@H](N)Cc1ccc(O)cc1)c1nc(-c2ccccc2)c[nH]1 [Cpd 212]
- pKi (delta opioid receptor): 5.89
- pKi (human mu opioid receptor): 7.26
- pKi (mu opioid receptor): 6.99

Compound: COc1ccc(CN(C(=O)[C@@H](N)Cc2ccc(O)cc2)[C@@H](C)c2nc(-c3ccccc3)c[nH]2)cc1C(=O)N1CCOCC1 [Cpd 298]
- pKi (delta opioid receptor): 7.36
- pKi (mu opioid receptor): 9.52
